Series [1] has as its system Myzus persicae (Green Peach Aphid). Put plainly: Myzus persicae test, roots of infested pea seedlings placed in test solution. The series is classed as in vivo. The note with it: 144 h, read-out: control of Myzus persicae. From the text: Myzus persicae (Green Peach Aphid):
Roots of pea seedlings, infested with an aphid population of mixed ages, were placed directly in the test solutions of 24 ppm. 6 days after introduction, samples were checked for mortality.

The subject of series [2] is Heliothis virescens (Tobacco Budworm). The experiment in a line: Heliothis virescens egg/larva test on artificial diet in 24-well microtiter plate. The series is classed as in vivo. The settings on record: 96 h, 200 ppm by pipetting on eggs (0-24 h old) on artificial diet, 4 days, egg mortality, larval mortality, growth regulation. From the text: Heliothis virescens (Tobacco Budworm):

Where [3] appears, read: roots of infested pea seedlings in test solutions of 24 ppm, 6 days, mortality.

Here are results for 40 molecules from patent US8309739B2, “Chemical compounds” (Syngenta Limited, priority 2005, dated 2012).

The structures appear in SMILES notation. Where two headings read alike, the source gives them in different places.

On to `Fc1ccc2c(c1)CCC2NC1=NCCS1` (stereo not shown), for which the melting point was 136 °C.

As for `Cc1ccc2c(c1)C(NC1=NCCS1)CC2` (stereo not shown), the melting point worked out at 181 °C.

`Oc1cccc2c1CCC2NC1=NCCS1` (stereo not shown): the melting point was 191 °C.

`Fc1ccc2c(c1F)CCC2NC1=NCCS1` (stereo not shown) gave a melting point of 161 °C.

`CC1(C)CC(NC2=NCCS2)c2ccccc21` (stereo not shown) had a melting point of 60 to 66 °C.

`COc1cc2c(cc1C)CCC2NC1=NCCS1` (stereo not shown): the melting point lay within 152 to 153 °C.

In the case of `Fc1c(F)c(F)c2c(c1F)CCC2NC1=NCCS1` (stereo not shown), the melting point is 165 °C.

`CCc1cc(F)c2c(c1)C(NC1=NCCS1)CC2` (stereo not shown): the melting point lay in the range of 148 to 149 °C.

The molecule `COC(=O)c1cccc2c1CCC2NC1=NCCS1` (stereo not shown) had a melting point of 131 °C.

`Ic1cccc2c1CCC2NC1=NCCS1` (stereo not shown) returned a melting point of 170 to 171 °C.

Take `O=Cc1cccc2c1CCC2NC1=NCCS1` (stereo not shown): the melting point lay in the range of 142 to 143 °C.

For `Cc1cccc2c1CCC2NC1=NCCS1` (stereo not shown) [Compound 2.006, (4,5-Dihydro-thiazol-2-yl)-(4-methyl-indan-1-yl)-amine], in series [1], the pest or weed control at 24 ppm is no less than 80%.

Consider `Fc1cccc2c1CCC2NC1=NCCS1` (stereo not shown) [Compound 2.019], for which the pest or weed control at 24 ppm in series [1] (setting [3]) is no less than 80%. Further, the pest or weed control at 200 ppm in series [2] was no less than 80%.

`Clc1cccc2c1CCC2NC1=NCCS1` (stereo not shown) [Compound 2.020] came in with a pest or weed control at 200 ppm in series [2] of no less than 80%.

For the molecule `Fc1cc(F)c2c(c1)C(NC1=NCCS1)CC2` (stereo not shown) [Compound 2.024], in series [1] (setting [3]), the pest or weed control at 24 ppm is no less than 80%. This molecule also registered a pest or weed control at 200 ppm in series [2] of no less than 80%.

`Fc1ccc(F)c2c1CCC2NC1=NCCS1` (stereo not shown) [Compound 2.025]: the pest or weed control at 24 ppm in series [1] (setting [3]) is no less than 80%. Further, the pest or weed control at 200 ppm in series [2] was no less than 80%.

With `Fc1cc(Br)cc2c1CCC2NC1=NCCS1` (stereo not shown) [Compound 2.026], the pest or weed control at 200 ppm in series [2] is no less than 80%.

For the molecule `Fc1cc2c(c(F)c1F)CCC2NC1=NCCS1` (stereo not shown) [Compound 2.028], the pest or weed control at 200 ppm in series [2] is no less than 80%.

Regarding `Fc1cc(F)c2c(c1F)C(NC1=NCCS1)CC2` (stereo not shown) [Compound 2.030], the pest or weed control at 24 ppm in series [1] (setting [3]) was no less than 80%. The pest or weed control at 200 ppm in series [2] was no less than 80%.

For the molecule `Cc1cc(F)c2c(c1)C(NC1=NCCS1)CC2` (stereo not shown) [Compound 2.031], the pest or weed control at 24 ppm in series [1] (setting [3]) was no less than 80%. This molecule gave a pest or weed control at 200 ppm in series [2] of no less than 80%.

`CCCC1(CCC)Cc2ccccc2C1NC1=NCCS1` (stereo not shown) [Compound 2.034] registered a melting point of 101 to 103 °C.

As to `c1ccc(Oc2cccc3c2CCC3NC2=NCCS2)cc1` (stereo not shown) [Compound 2.041], the melting point was in the range of 143 to 146 °C.

`O=[N+]([O-])c1cccc2c1CCC2NC1=NCCS1` (stereo not shown) [Compound 2.042] returned a melting point of 144 to 145 °C.

The molecule `Brc1ccc2c(c1)C(NC1=NCCS1)CC2` (stereo not shown) [Compound 2.049] displayed a pest or weed control at 200 ppm in series [2] of no less than 80%.

Molecule `Fc1cccc2c1C(NC1=NCCS1)CC2` (stereo not shown) [Compound 2.052] showed a pest or weed control at 200 ppm in series [2] of no less than 80%.

Regarding `FC(F)c1cccc2c1CCC2NC1=NCCS1` (stereo not shown) [Compound 2.058], the pest or weed control at 24 ppm in series [1] (setting [3]) was no less than 80%. For the same molecule, the pest or weed control at 200 ppm in series [2] was no less than 80%.

`Fc1cccc2c1CC(F)C2NC1=NCCS1` (stereo not shown) [Compound 2.067]: the pest or weed control at 24 ppm in series [1] (setting [3]) was no less than 80%. In series [2], this molecule registered a pest or weed control at 200 ppm of no less than 80%.

On to `ON(C1=NCCS1)C1CCc2c(Cl)cccc21` (stereo not shown) [Compound 7.001], for which the melting point was in the range of 115 to 117 °C.

On to `CC(C)(C)OC(=O)NN(C1=NCCS1)C1CCc2ccccc21` (stereo not shown) [Compound 7.002], for which the melting point lay within 63 to 64 °C.

On to `CC(=O)N(C(C)=O)N(C1=NCCS1)C1CCc2ccccc21` (stereo not shown) [Compound 7.004], for which the melting point was 91 to 92 °C.

Regarding `ON(C1=NCCS1)C1CCc2c(F)cccc21` (stereo not shown) [Compound 7.006], the pest or weed control at 24 ppm in series [1] (setting [3]) was no less than 80%.

The molecule `Cc1cccc2c1CCC2N(O)C1=NCCS1` (stereo not shown) [Compound 7.010] registered a pest or weed control at 200 ppm in series [2] of no less than 80%.

`NN(C1=NCCS1)C1CCc2ccccc21` (stereo not shown) [Compound 7.013] returned a melting point of 103 to 105 °C.

Molecule `N#CN1CCSC1=NC1CCc2ccccc21` (stereo not shown) [Compound 8.017, 2-(Indan-1-ylimino)-thiazolidine-3-carbonitrile] registered a pest or weed control at 200 ppm in series [2] of no less than 80%.

With `CC(C)C(=O)N1CCS/C1=N\C1CCc2ccccc21` (stereo not shown) [Compound 10.006], the pest or weed control at 24 ppm in series [1] (setting [3]) is no less than 80%.

As to `CCC(=O)N1CCS/C1=N\C1CCc2ccccc21` (stereo not shown) [Compound 10.011], the pest or weed control at 24 ppm in series [1] (setting [3]) is no less than 80%. The molecule further showed a pest or weed control at 200 ppm in series [2] of no less than 80%.

For `COC(=O)N1CCS/C1=N\C1CCc2ccccc21` (stereo not shown) [Compound 10.015], in series [1] (setting [3]), the pest or weed control at 24 ppm was no less than 80%. In series [2], this molecule showed a pest or weed control at 200 ppm of no less than 80%.

In the case of `CCOC(=O)N1CCS/C1=N\C1CCc2ccccc21` (stereo not shown) [Compound 10.020], the pest or weed control at 200 ppm in series [2] was no less than 80%.

The molecule `CC(=O)N1CCS/C1=N\C1CCc2ccccc21` (stereo not shown) [Compound 10.025] gave a pest or weed control at 200 ppm in series [2] of no less than 80%.

Molecule `CC(=O)OC1Cc2ccccc2C1NC1=NCCS1` (stereo not shown) [Compound 12.008] gave a pest or weed control at 200 ppm in series [2] of no less than 80%.
